Test results taken from PubChem BioAssay AID2060902 (Molecular Pharmacology Branch, DTP, NCI, 2025).

Test system: 485368-065-R3-J5-PDC spheroids with HUVEC/MSC, viability
Test: Anticancer human tumor 485368-065-R3-J5-PDC patient-derived pancreatic carcinoma cell line growth inhibition [RAS]
Conditions: for IC50: curve of first compound; for viability, T/C: stronger effect = lower value
From the text: RAS pathway inhibitors in Combinations in Complex Spheroids
A high-throughput screen of multi-cell type tumor spheroids was designed to identify active combinations of RAS pathway inhibitors and targeted small molecules. Complex spheroids include a stromal component modeled by human endothelial cells (HUVEC) and fibroblasts modeled by human mesenchymal stem cells (MSCs). The concentration ranges selected for each drug and investigational agent were based upon clinically achievable concentrations if the clinical Cmax of the agent was known.
Compounds. The drugs and investigational agents: abemaciclib (NSC768073), cobimetinib (NSC768068), divarasib (GDC6063, NSC841802), docetaxel (NSC628503), GDC-1971 (RLY-1971, NSC841576), gemcitabine (NSC613327), inavolisib (NSC800729), ipatasertib (NSC767898), KB-0742 (NSC834161), MRTX-1133 (NSC836407), osimertinib (NSC779217), RMC-4630 (NSC839698), RMC-6236 (NSC851965), RMC-6291 (NSC852671), Ro-3306 (NSC812927), sapanisertib (NSC764658), SN-38 (NSC673596), staurosporine (NSC755774), SY5609 (NSC837396), and tovorafenib (DAY101, NSC766906), were obtained from the National Cancer Institute (NCI) Developmental Therapeutics Program Chemical Repository. The FDA-approved anticancer drug set is available from the NCI Developmental Therapeutics Program. […] The stock solutions were prepared in dimethyl sulfoxide (DMSO, Sigma-Aldrich, St. Louis, MO, cat. D2650) at 800-fold the tested concentration and stored at -70 degrees C prior to their use. All drugs and investigational agents were tested over a range starting from a high concentration at or near the clinical Cmax and decreasing in half-log increments. If the clinical Cmax for an agent had not been determined, the highest concentration tested was 10 microM.
Cell Culture. All cells were maintained in an incubator at 37 degrees C and 5% CO2 with 95% humidity. The PDC lines were cultured according to standard operating procedures established by the NCI PDMR. All PDCs were thawed and cultured in Matrigel-coated flasks prepared with a working solution of 1X Ham's F-12 nutrient mix, without supplementation (Invitrogen, Waltham, MA, cat. 11765054), 100 U/mL penicillin-streptomycin (Invitrogen, cat. 15140122), and 2.5% Matrigel (Corning Inc., Corning, NY, cat. 354248) for the first three passages. The 362531-283-R-J2-PDC and 782815-120-R-J1-PDC lines were cultured in 6C/Colon 1B media, which includes advanced DMEM/F-12 (Thermo Fisher Scientific, cat. 12634028), 10 mM HEPES (Thermo Fisher Scientific, cat. 15630080), 1X GlutaMAX supplement (Thermo Fisher Scientific, cat. 35050061), 0.1 mg/mL primocin (InvivoGen, San Diego, CA, cat. ant-pm-2), 10% defined fetal bovine serum, heat inactivated (HyClone Laboratories Inc., Logan, UT, cat. SH30070.03HI), 50% L-WRN conditioned media (ATCC, cat. CRL-3276), 1.25 mM N-Acetyl-L-cysteine (Sigma-Aldrich, cat. A9165), 10 mM nicotinamide (Sigma-Aldrich, cat. N0636), 1X B-27 supplement (Thermo Fisher Scientific, cat. 17504044), 1X N-2 supplement (Thermo Fisher Scientific, cat. 17502048), 50 ng/mL human EGF (Thermo Fisher Scientific, cat. PHG0311), and 10 microM Y-27632 dihydrochloride (Tocris Bioscience, cat. 1254). The K12877-001-R-J1-PDC line was cultured in 6I media, which includes all 6C/Colon 1B media plus 10 ng/mL human FGF-10 (PeproTech, cat. 100-26), 1 ng/mL human FGF-2 (PeproTech, cat. 100-18B), 1 µM prostaglandin E2 (Tocris Bioscience, cat. 2296), […] hydrocortisone (Sigma-Aldrich, cat. H4001), and […] bovine insulin (Sigma-Aldrich, cat. I6634). The K86415-001-R-J1-PDC line was cultured in 6D media, which includes all 6C/Colon 1B media components minus the L-WRN conditioned media. The 485176-168-R4-J1-PDC was cultured in PANC media, which includes all 6C/Colon 1B media plus 100 ng/mL human FGF-10 (PeproTech, cat. 100-26), 500 nM SB-431542 (Selleckchem, cat. S1067), and 10 nM gastrin (Tocris Bioscience, cat. 3006). […]

[1] = second compound 0.0316 µM, first compound 0.0316 µM
[2] = second compound 0.0316 µM, first compound 0.1 µM
[3] = second compound 0.0316 µM, first compound 0.316 µM
[4] = second compound 0.0316 µM, first compound 1 µM
[5] = second compound 0.1 µM, first compound 0.0316 µM
[6] = second compound 0.1 µM, first compound 0.1 µM
[7] = second compound 0.1 µM, first compound 0.316 µM
[8] = second compound 0.1 µM, first compound 1 µM
[9] = second compound 0.316 µM, first compound 0.0316 µM
[10] = second compound 0.316 µM, first compound 0.1 µM
[11] = second compound 0.316 µM, first compound 0.316 µM
[12] = second compound 0.316 µM, first compound 1 µM
[13] = second compound 1 µM, first compound 0.0316 µM
[14] = second compound 1 µM, first compound 0.1 µM
[15] = second compound 1 µM, first compound 0.316 µM
[16] = second compound 1 µM, first compound 1 µM
[17] = second compound 3.16 µM, first compound 0.0316 µM
[18] = second compound 3.16 µM, first compound 0.1 µM
[19] = second compound 3.16 µM, first compound 0.316 µM
[20] = second compound 3.16 µM, first compound 1 µM
[21] = second compound 10 µM, first compound 0.0316 µM
[22] = second compound 10 µM, first compound 0.1 µM
[23] = second compound 10 µM, first compound 0.316 µM
[24] = second compound 10 µM, first compound 1 µM
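Also: spheroids exposed to agents for seven days before readout.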

CC1(O)CCCC1n1c(=O)c(C(F)F)cc2cnc(NC3CCN(S(C)(=O)=O)CC3)nc21 (centres undefined) + C#Cc1c(F)ccc2cc(O)cc(-c3ncc4c(N5CC6CCC(C5)N6)nc(OCC56CCCN5CC(F)C6)nc4c3F)c12
IC50 (second compound 0.0316 µM): 562 nM | IC50 (second compound 0.1 µM): 314 nM | IC50 (second compound 0.316 µM): 504 nM | IC50 (second compound 1 µM): 344 nM | IC50 (second compound 3.16 µM): 131 nM | IC50 (second compound 10 µM): < 31.6 nM | viability, T/C [1]: 94.1% | viability, T/C [2]: 62.8% | viability, T/C [3]: 53.2% | viability, T/C [4]: 46.5% | viability, T/C (second compound 0.0316 µM, first compound 3.16 µM): 39.4% | viability, T/C (second compound 0.0316 µM, first compound 10 µM): 11.2% | viability, T/C [5]: 103% | viability, T/C [6]: 66.4% | viability, T/C [7]: 44.9% | viability, T/C [8]: 40.8% | viability, T/C (second compound 0.1 µM, first compound 3.16 µM): 39.9% | viability, T/C (second compound 0.1 µM, first compound 10 µM): 10.9% | viability, T/C [9]: 84.6% | viability, T/C [10]: 71.1% | viability, T/C [11]: 46% | viability, T/C [12]: 39% | viability, T/C (second compound 0.316 µM, first compound 3.16 µM): 47.1% | viability, T/C (second compound 0.316 µM, first compound 10 µM): 11.9% | viability, T/C [13]: 90% | viability, T/C [14]: 63.4% | viability, T/C [15]: 41% | viability, T/C [16]: 44.2% | viability, T/C (second compound 1 µM, first compound 3.16 µM): 40.4% | viability, T/C (second compound 1 µM, first compound 10 µM): 13.3% | viability, T/C [17]: 65.8% | viability, T/C [18]: 46.8% | viability, T/C [19]: 38.8% | viability, T/C [20]: 34.4% | viability, T/C (second compound 3.16 µM, first compound 3.16 µM): 35.8% | viability, T/C (second compound 3.16 µM, first compound 10 µM): 9.18% | viability, T/C [21]: 36.9% | viability, T/C [22]: 32.6% | viability, T/C [23]: 28.6% | viability, T/C [24]: 30.9% | viability, T/C (second compound 10 µM, first compound 3.16 µM): 31.9% | viability, T/C (second compound 10 µM, first compound 10 µM): 6.8%

CCN1CCN(Cc2ccc(Nc3ncc(F)c(-c4cc(F)c5nc(C)n(C(C)C)c5c4)n3)nc2)CC1 + C#Cc1c(F)ccc2cc(O)cc(-c3ncc4c(N5CC6CCC(C5)N6)nc(OCC56CCCN5CC(F)C6)nc4c3F)c12
IC50 (second compound 0.0316 µM): 457 nM | IC50 (second compound 0.1 µM): 313 nM | IC50 (second compound 0.316 µM): 435 nM | IC50 (second compound 1 µM): 179 nM | IC50 (second compound 3.16 µM): 47.1 nM | IC50 (second compound 10 µM): < 3.16 nM | viability, T/C (second compound 0.0316 µM, first compound 0.00316 µM): 101% | viability, T/C (second compound 0.0316 µM, first compound 0.01 µM): 87% | viability, T/C [1]: 82.8% | viability, T/C [2]: 72.5% | viability, T/C [3]: 50.9% | viability, T/C [4]: 41.4% | viability, T/C (second compound 0.1 µM, first compound 0.00316 µM): 98.2% | viability, T/C (second compound 0.1 µM, first compound 0.01 µM): 96.7% | viability, T/C [5]: 76.1% | viability, T/C [6]: 65.9% | viability, T/C [7]: 50.1% | viability, T/C [8]: 39.8% | viability, T/C (second compound 0.316 µM, first compound 0.00316 µM): 94.4% | viability, T/C (second compound 0.316 µM, first compound 0.01 µM): 85.9% | viability, T/C [9]: 76.2% | viability, T/C [10]: 72.1% | viability, T/C [11]: 50.4% | viability, T/C [12]: 40.6% | viability, T/C (second compound 1 µM, first compound 0.00316 µM): 78.5% | viability, T/C (second compound 1 µM, first compound 0.01 µM): 83.8% | viability, T/C [13]: 75.1% | viability, T/C [14]: 59.4% | viability, T/C [15]: 40.1% | viability, T/C [16]: 40% | viability, T/C (second compound 3.16 µM, first compound 0.00316 µM): 69.4% | viability, T/C (second compound 3.16 µM, first compound 0.01 µM): 63.9% | viability, T/C [17]: 49.7% | viability, T/C [18]: 47.5% | viability, T/C [19]: 36.5% | viability, T/C [20]: 33.8% | viability, T/C (second compound 10 µM, first compound 0.00316 µM): 48.8% | viability, T/C (second compound 10 µM, first compound 0.01 µM): 37.2% | viability, T/C [21]: 31.4% | viability, T/C [22]: 30.3% | viability, T/C [23]: 29.9% | viability, T/C [24]: 28.3%
